Tests used:
Carbonic anhydrase 1 = Carbonic anhydrase 1 (Homo sapiens, UniProt P00915)
Description: Binding affinity to human recombinant carbonic anhydrase 1 assessed as inhibition constant incubated for 15 mins by phenol red based stopped-flow CO2 hydration assay

Carbonic anhydrase 2 = Carbonic anhydrase 2 (Homo sapiens, UniProt P00918)
Description: Binding affinity to human recombinant carbonic anhydrase 2 assessed as inhibition constant incubated for 15 mins by phenol red based stopped-flow CO2 hydration assay

Carbonic anhydrase 4 = Carbonic anhydrase 4 (Homo sapiens, UniProt P22748)
Description: Binding affinity to human recombinant carbonic anhydrase 4 assessed as inhibition constant incubated for 15 mins by phenol red based stopped-flow CO2 hydration assay

[1] = target: Carbonic anhydrase 5A, mitochondrial (Homo sapiens, UniProt P35218)
Description: Binding affinity to human recombinant carbonic anhydrase 5A assessed as inhibition constant incubated for 15 mins by phenol red based stopped-flow CO2 hydration assay

[2] = target: Carbonic anhydrase 5B, mitochondrial (Homo sapiens, UniProt Q9Y2D0)
Description: Binding affinity to human recombinant carbonic anhydrase 5B assessed as inhibition constant incubated for 15 mins by phenol red based stopped-flow CO2 hydration assay

Carbonic anhydrase 7 = Carbonic anhydrase 7 (Homo sapiens, UniProt P43166)
Description: Binding affinity to human recombinant carbonic anhydrase 7 assessed as inhibition constant incubated for 15 mins by phenol red based stopped-flow CO2 hydration assay

Carbonic anhydrase 12 = Carbonic anhydrase 12 (Homo sapiens, UniProt O43570)
Carbonic anhydrase 12, sequence (O43570 whole entry): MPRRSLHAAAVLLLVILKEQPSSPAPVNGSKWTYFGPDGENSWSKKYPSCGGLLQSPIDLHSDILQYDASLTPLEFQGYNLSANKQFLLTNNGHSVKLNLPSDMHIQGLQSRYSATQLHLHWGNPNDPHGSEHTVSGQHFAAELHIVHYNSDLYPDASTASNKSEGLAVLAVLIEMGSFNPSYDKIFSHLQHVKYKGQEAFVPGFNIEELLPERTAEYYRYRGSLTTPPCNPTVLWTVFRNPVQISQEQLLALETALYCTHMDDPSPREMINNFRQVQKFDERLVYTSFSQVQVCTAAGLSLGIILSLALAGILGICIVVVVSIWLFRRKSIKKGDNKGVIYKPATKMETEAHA
Description: Binding affinity to human recombinant carbonic anhydrase 12 assessed as inhibition constant incubated for 15 mins by phenol red based stopped-flow CO2 hydration assay

in vivo [3] = details: C57BL/6, mouse, 300 mg/kg
Description: Toxicity in MES induced C57BL/6 mouse model assessed as animal death at 300 mg/kg

in vivo [4] = details: C57BL/6, mouse, 200 mg/kg
Description: Toxicity in MES induced C57BL/6 mouse model assessed as mortality at 200 mg/kg

Carbonic anhydrase 5A, mitochondrial, sequence (P35218 whole entry): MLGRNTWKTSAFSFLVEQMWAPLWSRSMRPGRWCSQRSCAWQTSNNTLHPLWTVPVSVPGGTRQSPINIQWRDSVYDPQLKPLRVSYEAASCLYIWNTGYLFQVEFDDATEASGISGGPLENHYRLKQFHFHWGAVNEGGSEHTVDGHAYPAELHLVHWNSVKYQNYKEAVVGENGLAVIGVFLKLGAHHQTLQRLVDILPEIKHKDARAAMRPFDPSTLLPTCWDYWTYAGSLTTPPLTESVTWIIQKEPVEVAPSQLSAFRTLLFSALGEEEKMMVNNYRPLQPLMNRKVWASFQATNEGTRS
Carbonic anhydrase 4, sequence (P22748 whole entry): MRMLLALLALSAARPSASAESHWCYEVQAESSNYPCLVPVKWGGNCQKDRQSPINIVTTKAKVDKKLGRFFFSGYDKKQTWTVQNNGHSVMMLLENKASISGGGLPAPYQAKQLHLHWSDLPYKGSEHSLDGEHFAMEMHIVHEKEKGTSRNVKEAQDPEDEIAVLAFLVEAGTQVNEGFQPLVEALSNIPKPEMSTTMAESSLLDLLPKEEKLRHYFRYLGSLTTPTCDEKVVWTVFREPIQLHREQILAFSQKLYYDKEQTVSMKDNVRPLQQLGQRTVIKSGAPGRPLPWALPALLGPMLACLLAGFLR
Carbonic anhydrase 7, sequence (P43166 whole entry): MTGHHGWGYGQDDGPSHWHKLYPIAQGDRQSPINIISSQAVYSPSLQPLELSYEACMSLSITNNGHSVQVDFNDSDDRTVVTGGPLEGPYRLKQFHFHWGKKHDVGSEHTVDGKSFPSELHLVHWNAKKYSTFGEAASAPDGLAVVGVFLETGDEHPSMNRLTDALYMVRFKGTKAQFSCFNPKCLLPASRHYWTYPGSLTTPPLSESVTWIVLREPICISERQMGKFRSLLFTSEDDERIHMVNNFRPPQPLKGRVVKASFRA
Carbonic anhydrase 5B, mitochondrial, sequence (Q9Y2D0 whole entry): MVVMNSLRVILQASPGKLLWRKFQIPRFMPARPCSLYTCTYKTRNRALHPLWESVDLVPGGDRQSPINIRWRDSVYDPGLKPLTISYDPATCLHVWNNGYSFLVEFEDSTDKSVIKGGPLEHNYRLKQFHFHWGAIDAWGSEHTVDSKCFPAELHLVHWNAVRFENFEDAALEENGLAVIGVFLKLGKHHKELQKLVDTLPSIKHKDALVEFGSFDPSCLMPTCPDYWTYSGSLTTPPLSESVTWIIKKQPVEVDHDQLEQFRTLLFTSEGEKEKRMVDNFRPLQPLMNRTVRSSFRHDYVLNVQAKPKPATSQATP
Carbonic anhydrase 1, sequence (P00915 whole entry): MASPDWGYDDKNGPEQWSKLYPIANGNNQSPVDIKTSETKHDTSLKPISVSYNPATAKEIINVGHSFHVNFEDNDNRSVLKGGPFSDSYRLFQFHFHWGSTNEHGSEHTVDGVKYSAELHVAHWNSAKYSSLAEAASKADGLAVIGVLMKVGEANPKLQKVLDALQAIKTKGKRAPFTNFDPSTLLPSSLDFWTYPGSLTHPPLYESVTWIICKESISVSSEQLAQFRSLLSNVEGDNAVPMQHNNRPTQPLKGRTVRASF

Ki (Carbonic anhydrase 1)	Ki (Carbonic anhydrase 2)	Ki (Carbonic anhydrase 4)	Ki [1]	Ki [2]	Ki (Carbonic anhydrase 7)	Ki (Carbonic anhydrase 12)	SMILES	mortality (in vivo [3])	mortality (in vivo [4])
85.2 nM	5.1 nM	378 nM	90.6 nM	8.7 nM	2.8 nM	9.4 nM	CC(=O)OC[C@H]1O[C@@H]([Se]c2ccc(NC(=O)c3ccc(S(N)(=O)=O)cc3)cc2)[C@H](OC(C)=O)[C@@H](OC(C)=O)[C@@H]1OC(C)=O		
86.2 nM	17.2 nM	146 nM	96.8 nM	2.6 nM	0.8 nM	42.3 nM	CC(=O)O[C@H]1[C@@H](OC(C)=O)[C@@H](CO)O[C@@H]([Se]c2ccc(S(N)(=O)=O)cc2)[C@@H]1OC(C)=O		
48 nM	1.7 nM	348 nM	120 nM	88 nM	9.6 nM	90.5 nM	NS(=O)(=O)c1ccc(C(=O)Nc2ccc([Se][C@@H]3O[C@H](CO)[C@H](O)[C@H](O)[C@H]3O)cc2)cc1		
51.4 nM	4 nM	30.8 nM	57.4 nM	4 nM	0.7 nM	5.6 nM	CC(=O)OC[C@H]1O[C@@H]([Se]c2ccc(NC(=O)c3ccc(S(N)(=O)=O)cc3)cc2)[C@H](OC(C)=O)[C@@H](OC(C)=O)[C@H]1OC(C)=O		
> 10000 nM	214 nM	1570 nM	348 nM	40.9 nM	87.3 nM	> 10000 nM	CC(=O)OC[C@H]1O[C@@H]([Se]c2ccc(NC(=O)c3ccc(Cl)c(S(N)(=O)=O)c3)cc2)[C@H](OC(C)=O)[C@@H](OC(C)=O)[C@@H]1OC(C)=O		
46.4 nM	6.1 nM	8.9 nM	45.1 nM	3 nM	0.9 nM	7.2 nM	NS(=O)(=O)c1ccc(C(=O)Nc2ccc([Se][C@@H]3O[C@H](CO)[C@@H](O)[C@H](O)[C@H]3O)cc2)cc1		
48.1 nM	6.6 nM	362 nM	482 nM	4.7 nM	2 nM	34.2 nM	CC(=O)OC[C@H]1O[C@@H]([Se]c2ccc(NC(=S)Nc3ccc(S(N)(=O)=O)cc3)cc2)[C@H](OC(C)=O)[C@@H](OC(C)=O)[C@H]1OC(C)=O		
78.4 nM	3.7 nM	67.1 nM	736 nM	5.5 nM	4.1 nM	5.9 nM	CC(=O)O[C@@H]1[C@@H](OC(C)=O)[C@H]([Se]c2ccc(S(N)(=O)=O)cc2)O[C@H](CO)[C@H]1OC(C)=O		
> 10000 nM	6290 nM	> 10000 nM	2540 nM	> 10000 nM	> 10000 nM	> 10000 nM	CC(=O)OC[C@H]1O[C@@H]([Se]c2ccc(S(N)(=O)=O)c(N)c2)[C@H](OC(C)=O)[C@@H](OC(C)=O)[C@@H]1OC(C)=O		
637 nM	14.8 nM	77.7 nM	215 nM	21.9 nM	29.7 nM	88.7 nM	NS(=O)(=O)c1cc(C(=O)Nc2ccc([Se][C@@H]3O[C@H](CO)[C@H](O)[C@H](O)[C@H]3O)cc2)ccc1Cl		
6820 nM	6660 nM	7280 nM	236 nM	172 nM	> 10000 nM	> 10000 nM	CC(=O)O[C@H]1[C@@H](OC(C)=O)[C@@H](CO)O[C@@H]([Se]c2ccc(S(N)(=O)=O)c(N)c2)[C@@H]1OC(C)=O		
53.1 nM	6.3 nM	555 nM	254 nM	8.9 nM	1.8 nM	55.8 nM	CC(=O)OC[C@H]1O[C@@H]([Se]c2ccc(NC(=S)Nc3ccc(S(N)(=O)=O)cc3)cc2)[C@H](OC(C)=O)[C@@H](OC(C)=O)[C@@H]1OC(C)=O		
				4.2 nM	2.2 nM		NS(=O)(=O)c1ccc(S(=O)(=O)[C@@H]2O[C@H](CO)[C@@H](O)[C@H](O)[C@H]2O)cc1		
9600 nM	6320 nM	> 10000 nM	6570 nM	406 nM	> 10000 nM	> 10000 nM	CC(=O)OC[C@H]1O[C@@H]([Se]c2ccc(S(N)(=O)=O)c(N)c2)[C@H](OC(C)=O)[C@@H](OC(C)=O)[C@H]1OC(C)=O		
95.8 nM	4.1 nM	344 nM	87.2 nM	6.6 nM	0.5 nM	804 nM	CC(=O)OC[C@H]1O[C@@H]([Se]c2ccc(S(N)(=O)=O)cc2)[C@H](OC(C)=O)[C@@H](OC(C)=O)[C@H]1OC(C)=O		

SMILES	Ki (Carbonic anhydrase 1)	Ki (Carbonic anhydrase 2)	Ki (Carbonic anhydrase 4)	Ki [1]	Ki [2]	Ki (Carbonic anhydrase 7)	Ki (Carbonic anhydrase 12)	mortality (in vivo [3])	mortality (in vivo [4])
CC(=O)OC[C@H]1O[C@@H]([Se]c2ccc(S(N)(=O)=O)cc2)[C@H](OC(C)=O)[C@@H](OC(C)=O)[C@@H]1OC(C)=O	80.3 nM	41.4 nM	4120 nM	596 nM	707 nM	14.6 nM	9440 nM	20%	
NS(=O)(=O)c1ccc([Se][C@@H]2O[C@H](CO)[C@H](O)[C@H](O)[C@H]2O)cc1	647 nM	53.7 nM	580 nM	427 nM	8.7 nM	30.3 nM	82.4 nM		
NS(=O)(=O)c1ccc([Se][C@@H]2O[C@H](CO)[C@@H](O)[C@H](O)[C@H]2O)cc1	541 nM	13.8 nM	647 nM	325 nM	87.3 nM	263 nM	589 nM		
Nc1cc([Se][C@@H]2O[C@H](CO)[C@@H](O)[C@H](O)[C@H]2O)ccc1S(N)(=O)=O	7680 nM	4010 nM	> 10000 nM	2300 nM	> 10000 nM	> 10000 nM	2560 nM		
NS(=O)(=O)c1ccc(NC(=S)Nc2ccc([Se][C@@H]3O[C@H](CO)C(O)[C@H](O)[C@H]3O)cc2)cc1 (single isomer, unassigned; 16a)	71.4 nM	5.2 nM	283 nM	70.5 nM	7.6 nM	4.4 nM	19.8 nM		30%
NS(=O)(=O)c1ccc(NC(=S)Nc2ccc([Se][C@@H]3O[C@H](CO)C(O)[C@H](O)[C@H]3O)cc2)cc1 (single isomer, unassigned; 16b)	41.5 nM	4.5 nM	77.7 nM	358 nM	6.2 nM	0.9 nM	9.1 nM		

— ChEMBL document CHEMBL5331139, “First-in-Class Dual Targeting Compounds for the Management of Seizures in Glucose Transporter Type 1 Deficiency Syndrome” (J Med Chem, 2023)
